Experimental data: ChEMBL document CHEMBL4017490, “Design, Synthesis, and Pharmacological Evaluation of Novel Multisubstituted Pyridin-3-amine Derivatives as Multitargeted Protein Kinase Inhibitors for the Treatment of Non-Small Cell Lung Cancer” (J Med Chem, 2017)

Experiments:
[1] = biological target: Fibroblast growth factor receptor 2 (Homo sapiens, UniProt P21802)
Description: Inhibition of recombinant human FGFR2 using poly (Glu,Tyr) 4:1 as substrate after 60 mins by ELISA

[2] = biological target: Fibroblast growth factor receptor 3 (Homo sapiens, UniProt P22607); assay: Inhibition of recombinant human FGFR3 using poly (Glu,Tyr) 4:1 as substrate after 60 mins by ELISA
[3] = biological target: Fibroblast growth factor receptor 4 (Homo sapiens, UniProt P22455); assay: Inhibition of recombinant human FGFR4 using poly (Glu,Tyr) 4:1 as substrate after 60 mins by ELISA
[4] = biological target: Proto-oncogene tyrosine-protein kinase receptor Ret (Homo sapiens, UniProt P07949); assay: Inhibition of recombinant Ret (unknown origin) using poly (Glu,Tyr) 4:1 as substrate after 60 mins by ELISA
[5] = biological target: Platelet-derived growth factor receptor alpha (Homo sapiens, UniProt P16234); assay: Inhibition of recombinant PDGFR-alpha (unknown origin) using poly (Glu,Tyr) 4:1 as substrate after 60 mins by ELISA
Chain of Platelet-derived growth factor receptor alpha (P16234 whole entry): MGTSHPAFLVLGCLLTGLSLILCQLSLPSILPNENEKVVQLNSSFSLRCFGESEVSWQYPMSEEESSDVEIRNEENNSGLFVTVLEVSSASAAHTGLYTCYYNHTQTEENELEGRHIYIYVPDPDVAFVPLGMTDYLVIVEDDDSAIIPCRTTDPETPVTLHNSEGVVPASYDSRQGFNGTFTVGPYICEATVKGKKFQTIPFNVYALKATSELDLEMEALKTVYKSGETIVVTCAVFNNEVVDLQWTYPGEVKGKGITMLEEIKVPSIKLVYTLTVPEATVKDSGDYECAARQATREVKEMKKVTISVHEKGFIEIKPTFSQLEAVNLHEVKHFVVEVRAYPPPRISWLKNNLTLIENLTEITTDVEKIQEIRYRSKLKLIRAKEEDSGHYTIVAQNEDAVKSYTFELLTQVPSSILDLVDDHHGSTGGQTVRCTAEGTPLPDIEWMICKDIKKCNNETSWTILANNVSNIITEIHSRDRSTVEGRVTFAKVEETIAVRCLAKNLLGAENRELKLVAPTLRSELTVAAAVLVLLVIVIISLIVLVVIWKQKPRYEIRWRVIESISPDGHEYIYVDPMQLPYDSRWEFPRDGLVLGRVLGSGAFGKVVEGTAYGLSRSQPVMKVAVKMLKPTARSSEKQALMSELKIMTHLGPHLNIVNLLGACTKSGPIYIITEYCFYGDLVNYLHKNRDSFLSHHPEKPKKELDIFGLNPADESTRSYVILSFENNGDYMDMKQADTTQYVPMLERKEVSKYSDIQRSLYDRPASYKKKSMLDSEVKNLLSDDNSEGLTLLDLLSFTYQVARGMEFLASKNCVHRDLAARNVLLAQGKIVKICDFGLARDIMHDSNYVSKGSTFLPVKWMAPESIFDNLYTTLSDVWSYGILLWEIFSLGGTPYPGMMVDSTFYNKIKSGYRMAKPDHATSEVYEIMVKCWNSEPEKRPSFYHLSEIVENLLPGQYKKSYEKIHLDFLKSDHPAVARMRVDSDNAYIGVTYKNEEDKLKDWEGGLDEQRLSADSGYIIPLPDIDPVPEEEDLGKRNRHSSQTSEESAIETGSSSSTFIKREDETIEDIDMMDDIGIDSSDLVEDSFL

[6] = biological target: T1, Tyrosine-protein kinase Mer (Homo sapiens, UniProt Q12866); assay: Inhibition of recombinant Mer (unknown origin) using poly (Glu,Tyr) 4:1 as substrate after 60 mins by ELISA
T1 sequence (Q12866 whole entry): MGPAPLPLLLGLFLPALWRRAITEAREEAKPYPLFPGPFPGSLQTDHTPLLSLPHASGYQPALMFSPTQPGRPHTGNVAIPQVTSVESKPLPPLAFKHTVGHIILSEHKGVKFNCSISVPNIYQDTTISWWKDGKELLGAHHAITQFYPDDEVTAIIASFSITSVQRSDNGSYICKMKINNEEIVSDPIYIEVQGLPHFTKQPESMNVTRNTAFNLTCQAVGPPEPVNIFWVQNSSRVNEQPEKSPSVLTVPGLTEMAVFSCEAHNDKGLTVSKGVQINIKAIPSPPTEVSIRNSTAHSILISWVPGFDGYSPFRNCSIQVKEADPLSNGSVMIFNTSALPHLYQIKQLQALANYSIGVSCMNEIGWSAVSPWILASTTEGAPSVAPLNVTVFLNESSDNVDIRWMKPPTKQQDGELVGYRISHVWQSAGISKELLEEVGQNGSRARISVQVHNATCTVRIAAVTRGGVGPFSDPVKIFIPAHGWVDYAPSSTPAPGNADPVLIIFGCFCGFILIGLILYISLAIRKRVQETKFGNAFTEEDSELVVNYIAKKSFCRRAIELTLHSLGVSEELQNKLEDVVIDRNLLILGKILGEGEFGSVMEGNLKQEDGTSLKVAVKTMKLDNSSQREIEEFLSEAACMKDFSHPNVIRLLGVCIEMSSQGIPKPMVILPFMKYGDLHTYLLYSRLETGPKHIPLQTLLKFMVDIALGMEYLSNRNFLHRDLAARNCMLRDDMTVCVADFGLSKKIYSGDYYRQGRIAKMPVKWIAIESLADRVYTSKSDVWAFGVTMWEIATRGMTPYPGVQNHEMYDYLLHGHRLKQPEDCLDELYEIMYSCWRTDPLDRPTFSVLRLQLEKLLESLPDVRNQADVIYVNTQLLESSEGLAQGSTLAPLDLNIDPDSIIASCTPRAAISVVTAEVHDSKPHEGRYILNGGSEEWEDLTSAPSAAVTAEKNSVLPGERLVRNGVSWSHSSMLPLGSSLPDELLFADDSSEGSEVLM

[7] = biological target: Receptor tyrosine-protein kinase erbB-2 (Homo sapiens, UniProt P04626); assay: Inhibition of recombinant ErbB2 (unknown origin) using poly (Glu,Tyr) 4:1 as substrate after 60 mins by ELISA
[8] = biological target: Mast/stem cell growth factor receptor Kit (Homo sapiens, UniProt P10721); assay: Inhibition of recombinant c-Kit (unknown origin) using poly (Glu,Tyr) 4:1 as substrate after 60 mins by ELISA
Chain of Mast/stem cell growth factor receptor Kit (P10721 whole entry): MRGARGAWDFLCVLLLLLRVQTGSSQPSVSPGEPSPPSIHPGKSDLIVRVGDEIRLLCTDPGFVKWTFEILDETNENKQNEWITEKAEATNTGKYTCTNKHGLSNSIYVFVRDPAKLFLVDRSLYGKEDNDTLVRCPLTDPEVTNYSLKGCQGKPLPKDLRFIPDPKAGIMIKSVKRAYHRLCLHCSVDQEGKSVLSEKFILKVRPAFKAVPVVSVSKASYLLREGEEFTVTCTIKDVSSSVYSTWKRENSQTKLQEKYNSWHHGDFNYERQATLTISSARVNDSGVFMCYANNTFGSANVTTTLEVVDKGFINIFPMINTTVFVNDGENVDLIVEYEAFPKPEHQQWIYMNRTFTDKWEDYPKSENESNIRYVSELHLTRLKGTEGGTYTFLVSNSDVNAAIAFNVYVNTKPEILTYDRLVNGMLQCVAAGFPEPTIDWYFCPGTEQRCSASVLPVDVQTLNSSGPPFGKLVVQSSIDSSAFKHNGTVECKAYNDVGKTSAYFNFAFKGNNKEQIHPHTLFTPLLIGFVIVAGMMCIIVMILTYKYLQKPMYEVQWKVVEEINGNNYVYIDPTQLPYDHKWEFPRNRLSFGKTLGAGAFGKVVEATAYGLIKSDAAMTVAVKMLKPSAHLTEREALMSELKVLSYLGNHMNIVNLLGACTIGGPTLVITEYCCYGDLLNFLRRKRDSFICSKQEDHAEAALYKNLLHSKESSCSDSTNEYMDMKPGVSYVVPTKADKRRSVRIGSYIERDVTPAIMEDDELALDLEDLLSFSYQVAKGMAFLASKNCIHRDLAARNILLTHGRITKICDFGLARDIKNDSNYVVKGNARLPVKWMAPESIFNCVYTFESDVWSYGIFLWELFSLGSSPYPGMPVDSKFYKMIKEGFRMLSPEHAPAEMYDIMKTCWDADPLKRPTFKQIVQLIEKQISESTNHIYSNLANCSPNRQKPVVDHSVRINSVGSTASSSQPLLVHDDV

[9] = biological target: Mitogen-activated protein kinase 1 (Homo sapiens, UniProt P28482); assay: Inhibition of Erk2 (unknown origin) by FRET assay
Chain of Mitogen-activated protein kinase 1 (P28482 whole entry): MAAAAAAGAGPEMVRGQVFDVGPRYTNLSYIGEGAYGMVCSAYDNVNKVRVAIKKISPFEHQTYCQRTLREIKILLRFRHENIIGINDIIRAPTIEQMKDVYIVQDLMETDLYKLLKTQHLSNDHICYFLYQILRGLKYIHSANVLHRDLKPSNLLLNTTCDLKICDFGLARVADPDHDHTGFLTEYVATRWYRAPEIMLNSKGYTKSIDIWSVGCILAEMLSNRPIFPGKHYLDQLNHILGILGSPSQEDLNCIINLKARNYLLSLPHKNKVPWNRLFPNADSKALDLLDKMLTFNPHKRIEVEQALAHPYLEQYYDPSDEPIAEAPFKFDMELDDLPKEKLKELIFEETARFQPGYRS

[10] = biological target: Hepatocyte growth factor receptor (Homo sapiens, UniProt P08581); assay: Inhibition of recombinant c-Met (unknown origin) using poly (Glu,Tyr) 4:1 as substrate after 60 mins by ELISA
[11] = biological target: T2, Tyrosine-protein kinase receptor TYRO3 (Homo sapiens, UniProt Q06418); assay: Inhibition of recombinant Tyro3 (unknown origin) using poly (Glu,Tyr) 4:1 as substrate after 60 mins by ELISA
T2 sequence (Q06418 whole entry): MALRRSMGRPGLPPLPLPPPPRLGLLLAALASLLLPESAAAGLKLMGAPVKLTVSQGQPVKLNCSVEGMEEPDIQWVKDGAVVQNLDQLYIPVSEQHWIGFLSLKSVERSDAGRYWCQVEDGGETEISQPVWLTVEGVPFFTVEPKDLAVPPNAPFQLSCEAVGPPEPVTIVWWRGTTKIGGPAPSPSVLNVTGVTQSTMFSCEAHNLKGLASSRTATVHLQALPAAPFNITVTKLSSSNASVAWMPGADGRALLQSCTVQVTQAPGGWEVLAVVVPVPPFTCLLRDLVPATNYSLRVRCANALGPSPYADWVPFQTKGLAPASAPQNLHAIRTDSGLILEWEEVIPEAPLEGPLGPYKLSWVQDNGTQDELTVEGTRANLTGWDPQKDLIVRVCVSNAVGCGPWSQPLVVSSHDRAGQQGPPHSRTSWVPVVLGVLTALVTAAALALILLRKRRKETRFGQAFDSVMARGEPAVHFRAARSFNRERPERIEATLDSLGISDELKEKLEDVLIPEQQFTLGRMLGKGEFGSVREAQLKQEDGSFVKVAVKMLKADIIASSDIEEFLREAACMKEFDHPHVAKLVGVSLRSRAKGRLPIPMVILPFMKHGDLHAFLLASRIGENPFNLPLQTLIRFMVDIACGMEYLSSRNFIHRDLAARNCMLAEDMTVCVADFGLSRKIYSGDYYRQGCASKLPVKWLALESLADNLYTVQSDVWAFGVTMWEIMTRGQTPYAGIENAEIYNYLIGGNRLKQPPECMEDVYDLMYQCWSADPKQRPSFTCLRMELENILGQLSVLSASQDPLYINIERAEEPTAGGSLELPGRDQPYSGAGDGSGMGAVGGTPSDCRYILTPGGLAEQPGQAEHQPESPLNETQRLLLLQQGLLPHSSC

[12] = biological target: Cyclin-dependent kinase 1 (Homo sapiens, UniProt P06493); assay: Inhibition of CDK1 (unknown origin) by FRET assay
Chain of Cyclin-dependent kinase 1 (P06493 whole entry): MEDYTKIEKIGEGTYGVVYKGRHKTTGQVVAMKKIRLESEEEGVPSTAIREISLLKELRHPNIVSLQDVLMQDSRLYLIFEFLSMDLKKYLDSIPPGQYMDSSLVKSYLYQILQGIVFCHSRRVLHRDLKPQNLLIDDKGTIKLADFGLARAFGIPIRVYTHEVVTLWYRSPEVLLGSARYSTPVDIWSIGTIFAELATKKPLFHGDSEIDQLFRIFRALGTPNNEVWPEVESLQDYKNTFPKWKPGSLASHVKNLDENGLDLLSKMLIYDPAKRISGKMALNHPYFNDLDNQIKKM

[13] = biological target: Cyclin-dependent kinase 4 (Homo sapiens, UniProt P11802); assay: Inhibition of CDK4 (unknown origin) by FRET assay
[14] = biological target: Cyclin-dependent kinase 6 (Homo sapiens, UniProt Q00534); assay: Inhibition of CDK6 (unknown origin) by FRET assay
Chain of Cyclin-dependent kinase 6 (Q00534 whole entry): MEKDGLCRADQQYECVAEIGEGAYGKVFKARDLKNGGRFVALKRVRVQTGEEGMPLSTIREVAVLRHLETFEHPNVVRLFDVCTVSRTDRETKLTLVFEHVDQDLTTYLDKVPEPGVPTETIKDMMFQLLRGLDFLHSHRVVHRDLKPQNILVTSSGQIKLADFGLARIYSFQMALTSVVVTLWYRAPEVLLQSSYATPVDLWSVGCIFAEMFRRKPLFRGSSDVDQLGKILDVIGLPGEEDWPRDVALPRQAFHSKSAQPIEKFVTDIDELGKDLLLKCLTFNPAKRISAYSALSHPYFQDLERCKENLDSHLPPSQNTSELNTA

[15] = biological target: Epidermal growth factor receptor (Homo sapiens, UniProt P00533)
Description: Inhibition of recombinant EGFR (unknown origin) using poly (Glu,Tyr) 4:1 as substrate after 60 mins by ELISA

[16] = biological target: Tyrosine-protein kinase ABL1 (Homo sapiens, UniProt P00519)
Chain of Tyrosine-protein kinase ABL1 (P00519 whole entry): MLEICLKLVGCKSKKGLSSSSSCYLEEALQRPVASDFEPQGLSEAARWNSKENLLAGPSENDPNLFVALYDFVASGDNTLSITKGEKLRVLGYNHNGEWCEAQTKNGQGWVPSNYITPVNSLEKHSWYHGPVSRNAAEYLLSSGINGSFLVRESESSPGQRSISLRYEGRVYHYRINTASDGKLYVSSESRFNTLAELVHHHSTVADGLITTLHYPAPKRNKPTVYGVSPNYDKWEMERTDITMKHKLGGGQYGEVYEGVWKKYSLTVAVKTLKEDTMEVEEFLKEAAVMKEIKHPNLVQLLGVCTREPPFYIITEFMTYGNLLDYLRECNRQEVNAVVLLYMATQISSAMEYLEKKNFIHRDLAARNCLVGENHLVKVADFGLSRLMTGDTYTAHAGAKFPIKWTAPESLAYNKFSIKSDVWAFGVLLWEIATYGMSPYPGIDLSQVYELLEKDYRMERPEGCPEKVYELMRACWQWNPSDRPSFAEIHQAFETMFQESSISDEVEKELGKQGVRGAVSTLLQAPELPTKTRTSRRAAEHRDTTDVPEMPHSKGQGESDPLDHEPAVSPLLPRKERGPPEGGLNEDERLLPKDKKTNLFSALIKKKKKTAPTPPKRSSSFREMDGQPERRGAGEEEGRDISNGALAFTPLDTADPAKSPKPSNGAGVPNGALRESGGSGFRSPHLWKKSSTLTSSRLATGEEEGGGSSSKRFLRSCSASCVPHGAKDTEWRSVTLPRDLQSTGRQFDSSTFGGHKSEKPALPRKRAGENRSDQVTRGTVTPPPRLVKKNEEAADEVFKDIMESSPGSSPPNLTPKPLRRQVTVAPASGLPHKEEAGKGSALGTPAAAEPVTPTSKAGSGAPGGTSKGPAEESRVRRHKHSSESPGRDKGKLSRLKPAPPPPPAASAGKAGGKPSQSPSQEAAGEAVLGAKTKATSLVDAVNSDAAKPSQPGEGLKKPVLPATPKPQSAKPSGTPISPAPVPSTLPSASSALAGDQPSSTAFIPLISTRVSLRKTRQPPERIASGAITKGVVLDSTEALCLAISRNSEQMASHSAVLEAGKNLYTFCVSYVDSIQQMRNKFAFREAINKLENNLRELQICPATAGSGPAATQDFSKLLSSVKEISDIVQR
Description: Inhibition of recombinant ABL (unknown origin) using poly (Glu,Tyr) 4:1 as substrate after 60 mins by ELISA

Chain of Fibroblast growth factor receptor 2 (P21802 whole entry): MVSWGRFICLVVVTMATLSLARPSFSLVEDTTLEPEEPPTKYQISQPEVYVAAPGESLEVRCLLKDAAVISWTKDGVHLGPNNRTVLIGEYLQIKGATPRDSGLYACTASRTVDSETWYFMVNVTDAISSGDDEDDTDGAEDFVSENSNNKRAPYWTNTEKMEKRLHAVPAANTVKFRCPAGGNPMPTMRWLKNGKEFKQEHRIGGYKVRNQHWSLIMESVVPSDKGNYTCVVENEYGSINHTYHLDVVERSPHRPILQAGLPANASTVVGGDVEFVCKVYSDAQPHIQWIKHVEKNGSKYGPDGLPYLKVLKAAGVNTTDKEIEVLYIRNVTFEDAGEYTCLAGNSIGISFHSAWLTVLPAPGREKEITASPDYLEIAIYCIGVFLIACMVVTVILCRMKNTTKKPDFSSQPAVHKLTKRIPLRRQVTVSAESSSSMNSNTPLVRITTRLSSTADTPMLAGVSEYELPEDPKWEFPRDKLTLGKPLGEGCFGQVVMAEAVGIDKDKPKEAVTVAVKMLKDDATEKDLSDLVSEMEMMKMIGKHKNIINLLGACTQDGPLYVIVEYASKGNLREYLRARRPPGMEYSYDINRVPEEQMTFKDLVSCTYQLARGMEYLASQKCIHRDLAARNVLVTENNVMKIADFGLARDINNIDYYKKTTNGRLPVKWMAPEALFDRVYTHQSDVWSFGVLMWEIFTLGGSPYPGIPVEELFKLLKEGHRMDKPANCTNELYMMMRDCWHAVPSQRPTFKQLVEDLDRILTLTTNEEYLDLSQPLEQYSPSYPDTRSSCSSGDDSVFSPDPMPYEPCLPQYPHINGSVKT

| IC50 [1] [nM] | IC50 [2] [nM] | IC50 [3] [nM] | IC50 [4] [nM] | IC50 [5] [nM] | IC50 [6] [nM] | IC50 [7] [nM] | IC50 [8] [nM] | IC50 [9] [nM] | IC50 [10] [nM] | IC50 [11] [nM] | IC50 [12] [nM] | IC50 [13] [nM] | IC50 [14] [nM] | IC50 [15] [nM] | IC50 [16] [nM] | SMILES |
| --- | --- | --- | --- | --- | --- | --- | --- | --- | --- | --- | --- | --- | --- | --- | --- | --- |
| 8.6 | 73.1 | 61.7 | 0.7 | > 100 | 30.9 | 1 to 10 | > 10 | 960 | > 1000 | > 1000 | > 1000 | > 1000 | > 1000 | 3.1 | 6.6 | Cc1n[nH]c2ccc(-c3cc(N[C@@H](CO)c4ccccc4)cnc3-c3cc(Cl)ccc3O)cc12 |
| 2 | 23 | 7.4 | 0.04 | > 100 | 4.4 | 1 to 10 | > 10 | 196 | 196 | > 1000 | > 1000 | > 1000 | > 1000 | 4.2 | 4.3 | OC[C@H](Nc1cnc(-c2cc(Cl)ccc2O)c(-c2ccc3cnccc3c2)c1)c1ccccc1 |
| 1.6 | 27.5 | 299 | 0.2 | > 100 | 36.9 | > 10 | > 10 | 575 | > 1000 | > 1000 | > 1000 | > 1000 | > 1000 | 4.7 | 2.9 | Cc1n[nH]c2ccc(-c3cc(N[C@@H](CO)c4ccccc4)cnc3-c3cc(F)ccc3O)cc12 |
| 4.7 | 15.9 | 93.3 | 0.4 | > 100 | 7.1 | 1 to 10 | > 10 | > 1000 | > 1000 | > 1000 | > 1000 | > 1000 | > 1000 | 8.1 | 6.1 | Cc1n[nH]c2ccc(-c3cc(N[C@@H](CO)c4ccccc4)cnc3-c3ccc(F)cc3O)cc12 |
